Measured values from ChEMBL document CHEMBL5465560, “Selectivity Literature for EUbOPEN Chemogenomic Library” (2024).

Assays:
[1] = biological target: Tyrosine-protein kinase Lyn (Homo sapiens, UniProt P07948); experiment: Selectivity interaction (Millipore kinase profiler) EUB0000124b LYN; conditions: at 10 µM
[2] = biological target: Mitogen-activated protein kinase kinase kinase kinase 4 (Homo sapiens, UniProt O95819); experiment: Selectivity interaction (Enzymatic assay) EUB0001199aCl MAP4K4
[3] = biological target: TRAF2 and NCK-interacting protein kinase (Homo sapiens) (UniProt Q9UKE5); experiment: Selectivity interaction (KinomeScan (DiscoverX)) EUB0000666a TNIK; conditions: at 10 µM
TRAF2 and NCK-interacting protein kinase (Homo sapiens), sequence (Q9UKE5 whole entry, looked up): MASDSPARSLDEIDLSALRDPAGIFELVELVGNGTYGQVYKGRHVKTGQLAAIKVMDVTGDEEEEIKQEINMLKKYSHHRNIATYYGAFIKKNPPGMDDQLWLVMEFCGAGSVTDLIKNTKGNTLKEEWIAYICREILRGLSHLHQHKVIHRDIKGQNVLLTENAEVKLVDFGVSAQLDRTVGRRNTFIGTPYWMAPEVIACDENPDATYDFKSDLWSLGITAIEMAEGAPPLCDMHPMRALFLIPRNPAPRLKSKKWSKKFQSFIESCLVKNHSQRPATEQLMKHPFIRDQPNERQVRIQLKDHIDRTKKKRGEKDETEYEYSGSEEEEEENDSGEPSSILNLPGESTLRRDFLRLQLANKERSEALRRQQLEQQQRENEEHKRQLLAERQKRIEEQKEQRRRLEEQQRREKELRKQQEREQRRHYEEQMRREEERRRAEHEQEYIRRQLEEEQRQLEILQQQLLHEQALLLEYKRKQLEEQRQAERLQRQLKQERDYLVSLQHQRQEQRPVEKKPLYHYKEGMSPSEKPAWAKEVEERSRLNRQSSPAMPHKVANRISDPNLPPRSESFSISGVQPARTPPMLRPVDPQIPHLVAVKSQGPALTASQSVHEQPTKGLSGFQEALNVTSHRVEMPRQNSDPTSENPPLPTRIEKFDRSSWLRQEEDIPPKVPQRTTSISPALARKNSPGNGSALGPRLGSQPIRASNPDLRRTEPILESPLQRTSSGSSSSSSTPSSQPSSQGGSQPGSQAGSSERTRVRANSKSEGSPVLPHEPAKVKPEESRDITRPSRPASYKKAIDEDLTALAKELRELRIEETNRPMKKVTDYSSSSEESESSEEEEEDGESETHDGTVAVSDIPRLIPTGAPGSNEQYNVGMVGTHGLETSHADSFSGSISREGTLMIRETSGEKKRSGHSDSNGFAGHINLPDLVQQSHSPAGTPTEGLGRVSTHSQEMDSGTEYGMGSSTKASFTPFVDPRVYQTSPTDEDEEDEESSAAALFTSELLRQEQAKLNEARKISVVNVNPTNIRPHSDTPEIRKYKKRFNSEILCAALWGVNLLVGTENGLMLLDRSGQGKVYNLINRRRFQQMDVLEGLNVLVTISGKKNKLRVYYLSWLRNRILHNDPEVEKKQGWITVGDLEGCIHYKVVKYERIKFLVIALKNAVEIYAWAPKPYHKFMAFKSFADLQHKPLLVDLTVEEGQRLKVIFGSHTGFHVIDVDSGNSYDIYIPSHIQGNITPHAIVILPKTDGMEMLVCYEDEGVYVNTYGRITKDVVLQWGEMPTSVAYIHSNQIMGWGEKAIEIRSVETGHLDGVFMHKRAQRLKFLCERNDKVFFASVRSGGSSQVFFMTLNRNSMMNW

[4] = biological target: T1, cAMP-dependent protein kinase catalytic subunit PRKX (Homo sapiens) (UniProt P51817); experiment: Selectivity interaction (Kinase panel (Invitrogen)) EUB0000639a PRKX; conditions: at 200 nM
T1 sequence (whole entry): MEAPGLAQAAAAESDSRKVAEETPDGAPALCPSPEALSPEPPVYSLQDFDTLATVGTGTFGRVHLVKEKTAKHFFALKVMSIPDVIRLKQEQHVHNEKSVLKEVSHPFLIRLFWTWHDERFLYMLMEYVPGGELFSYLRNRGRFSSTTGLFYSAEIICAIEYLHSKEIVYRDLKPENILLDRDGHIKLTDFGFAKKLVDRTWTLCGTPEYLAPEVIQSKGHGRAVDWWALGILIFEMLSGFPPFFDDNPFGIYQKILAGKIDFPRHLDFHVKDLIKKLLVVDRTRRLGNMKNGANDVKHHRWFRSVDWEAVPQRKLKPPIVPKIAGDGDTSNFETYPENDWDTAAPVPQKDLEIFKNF

[5] = biological target: Death-associated protein kinase 1 (Homo sapiens, UniProt P53355); experiment: Selectivity interaction (KinomeScan (DiscoverX)) EUB0000045b DAPK1
Death-associated protein kinase 1, sequence (P53355 whole entry, looked up, canonical isoform): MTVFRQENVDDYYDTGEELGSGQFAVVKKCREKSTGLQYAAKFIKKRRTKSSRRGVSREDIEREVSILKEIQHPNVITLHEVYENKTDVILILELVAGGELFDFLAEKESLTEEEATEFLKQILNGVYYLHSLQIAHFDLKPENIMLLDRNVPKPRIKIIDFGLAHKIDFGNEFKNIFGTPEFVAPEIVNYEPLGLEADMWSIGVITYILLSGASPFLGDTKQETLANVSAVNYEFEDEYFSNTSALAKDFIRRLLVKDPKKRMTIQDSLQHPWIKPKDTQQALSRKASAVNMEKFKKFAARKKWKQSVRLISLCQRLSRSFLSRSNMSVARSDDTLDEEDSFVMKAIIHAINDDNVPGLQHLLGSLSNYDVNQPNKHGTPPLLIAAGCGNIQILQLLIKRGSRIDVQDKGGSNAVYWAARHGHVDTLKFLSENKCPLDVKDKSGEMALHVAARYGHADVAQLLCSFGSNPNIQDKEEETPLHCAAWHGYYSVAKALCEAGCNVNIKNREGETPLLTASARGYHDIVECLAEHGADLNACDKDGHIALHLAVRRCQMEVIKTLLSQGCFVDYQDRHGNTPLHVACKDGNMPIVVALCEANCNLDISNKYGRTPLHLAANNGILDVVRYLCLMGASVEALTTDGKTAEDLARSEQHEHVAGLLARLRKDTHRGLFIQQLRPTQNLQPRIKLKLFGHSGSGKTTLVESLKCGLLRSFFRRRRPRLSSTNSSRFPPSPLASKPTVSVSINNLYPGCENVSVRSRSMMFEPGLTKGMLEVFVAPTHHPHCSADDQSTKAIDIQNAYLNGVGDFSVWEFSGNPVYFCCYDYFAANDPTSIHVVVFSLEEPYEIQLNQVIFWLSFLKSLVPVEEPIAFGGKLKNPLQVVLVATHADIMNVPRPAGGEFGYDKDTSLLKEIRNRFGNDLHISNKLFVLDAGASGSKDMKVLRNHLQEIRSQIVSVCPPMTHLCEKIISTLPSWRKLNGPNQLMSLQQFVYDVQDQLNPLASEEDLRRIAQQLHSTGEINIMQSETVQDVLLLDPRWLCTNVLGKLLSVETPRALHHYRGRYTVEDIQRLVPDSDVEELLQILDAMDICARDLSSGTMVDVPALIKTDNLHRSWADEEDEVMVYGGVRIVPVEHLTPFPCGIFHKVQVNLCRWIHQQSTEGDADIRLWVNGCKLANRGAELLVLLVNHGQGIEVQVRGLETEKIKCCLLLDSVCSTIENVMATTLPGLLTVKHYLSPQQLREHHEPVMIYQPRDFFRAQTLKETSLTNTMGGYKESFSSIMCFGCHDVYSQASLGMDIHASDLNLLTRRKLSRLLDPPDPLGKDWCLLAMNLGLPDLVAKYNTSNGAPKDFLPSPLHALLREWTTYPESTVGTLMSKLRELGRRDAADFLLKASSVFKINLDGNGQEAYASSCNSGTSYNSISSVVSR

[6] = biological target: Casein kinase I isoform epsilon (Homo sapiens, UniProt P49674); experiment: Selectivity interaction (KinomeScan (DiscoverX)) EUB0001619a CSNK1E; conditions: at 1 µM
[7] = biological target: Tyrosine-protein kinase Yes (Homo sapiens) (UniProt P07947); experiment: Selectivity interaction (Upstate Kinase Profiler service (Millipore)) EUB0000056c YES1; conditions: at 1 µM
Tyrosine-protein kinase Yes (Homo sapiens), sequence (P07947 2-543 limits assumed): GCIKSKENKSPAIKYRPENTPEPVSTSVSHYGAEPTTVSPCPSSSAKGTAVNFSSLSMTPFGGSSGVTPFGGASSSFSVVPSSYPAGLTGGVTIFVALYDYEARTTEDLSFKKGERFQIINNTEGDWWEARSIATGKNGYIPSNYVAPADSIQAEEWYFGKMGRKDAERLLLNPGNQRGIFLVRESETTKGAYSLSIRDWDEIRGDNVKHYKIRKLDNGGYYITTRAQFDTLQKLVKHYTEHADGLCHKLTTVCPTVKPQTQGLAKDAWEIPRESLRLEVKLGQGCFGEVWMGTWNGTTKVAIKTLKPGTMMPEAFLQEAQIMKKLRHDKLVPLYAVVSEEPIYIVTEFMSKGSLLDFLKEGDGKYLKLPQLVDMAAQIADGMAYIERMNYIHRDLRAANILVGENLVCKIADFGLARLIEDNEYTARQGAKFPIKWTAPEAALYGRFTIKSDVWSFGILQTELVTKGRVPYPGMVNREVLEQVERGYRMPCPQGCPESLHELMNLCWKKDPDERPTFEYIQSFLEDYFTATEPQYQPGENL

[8] = biological target: T2, Beta-adrenergic receptor kinase 1 (Homo sapiens) (UniProt P25098); experiment: Selectivity interaction (KinomeScan (DiscoverX)) EUB0000695a ADRBK1; conditions: at 100 nM
T2 sequence (whole entry): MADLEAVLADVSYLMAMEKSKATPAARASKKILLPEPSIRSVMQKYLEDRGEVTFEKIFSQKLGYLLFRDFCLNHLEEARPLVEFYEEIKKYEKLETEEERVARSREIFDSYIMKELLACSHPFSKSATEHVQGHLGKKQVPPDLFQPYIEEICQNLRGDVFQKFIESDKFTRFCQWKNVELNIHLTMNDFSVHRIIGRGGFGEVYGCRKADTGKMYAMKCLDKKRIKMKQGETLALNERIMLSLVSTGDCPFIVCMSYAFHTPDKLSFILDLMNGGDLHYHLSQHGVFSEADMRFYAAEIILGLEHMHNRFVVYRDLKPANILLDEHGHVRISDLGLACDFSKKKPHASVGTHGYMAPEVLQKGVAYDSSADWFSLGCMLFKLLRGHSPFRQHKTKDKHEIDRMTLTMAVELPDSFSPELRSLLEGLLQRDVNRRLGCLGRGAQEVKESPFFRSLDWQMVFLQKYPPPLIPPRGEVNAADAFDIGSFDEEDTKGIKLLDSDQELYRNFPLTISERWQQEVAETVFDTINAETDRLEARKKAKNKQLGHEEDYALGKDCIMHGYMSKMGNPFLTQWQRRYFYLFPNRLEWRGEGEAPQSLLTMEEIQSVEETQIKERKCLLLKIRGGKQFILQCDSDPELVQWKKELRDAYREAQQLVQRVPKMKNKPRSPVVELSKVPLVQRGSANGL

[9] = biological target: T3, Tyrosine-protein kinase TXK (Homo sapiens) (UniProt P42681); experiment: Selectivity interaction (KinomeScan (DiscoverX)) EUB0000695a TXK; conditions: at 100 nM
T3 sequence (whole entry): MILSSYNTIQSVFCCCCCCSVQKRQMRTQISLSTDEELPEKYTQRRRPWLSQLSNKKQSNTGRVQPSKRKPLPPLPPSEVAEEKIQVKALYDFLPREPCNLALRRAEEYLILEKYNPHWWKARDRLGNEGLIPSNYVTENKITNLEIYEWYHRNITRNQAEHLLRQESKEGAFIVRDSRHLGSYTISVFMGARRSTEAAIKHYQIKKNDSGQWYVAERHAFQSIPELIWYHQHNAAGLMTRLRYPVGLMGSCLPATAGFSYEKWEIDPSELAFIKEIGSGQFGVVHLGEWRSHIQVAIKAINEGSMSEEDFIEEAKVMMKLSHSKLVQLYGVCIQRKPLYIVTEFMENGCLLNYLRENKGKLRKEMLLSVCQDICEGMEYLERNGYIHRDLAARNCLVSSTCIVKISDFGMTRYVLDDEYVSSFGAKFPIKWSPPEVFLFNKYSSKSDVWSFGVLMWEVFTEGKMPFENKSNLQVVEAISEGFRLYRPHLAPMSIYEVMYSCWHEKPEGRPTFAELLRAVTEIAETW

[10] = biological target: Dual specificity testis-specific protein kinase 1 (Homo sapiens) (UniProt Q15569); experiment: Selectivity interaction (KinomeScan (DiscoverX)) EUB0000607a TESK1; conditions: at 10 µM
Dual specificity testis-specific protein kinase 1 (Homo sapiens), sequence (Q15569 whole entry, looked up): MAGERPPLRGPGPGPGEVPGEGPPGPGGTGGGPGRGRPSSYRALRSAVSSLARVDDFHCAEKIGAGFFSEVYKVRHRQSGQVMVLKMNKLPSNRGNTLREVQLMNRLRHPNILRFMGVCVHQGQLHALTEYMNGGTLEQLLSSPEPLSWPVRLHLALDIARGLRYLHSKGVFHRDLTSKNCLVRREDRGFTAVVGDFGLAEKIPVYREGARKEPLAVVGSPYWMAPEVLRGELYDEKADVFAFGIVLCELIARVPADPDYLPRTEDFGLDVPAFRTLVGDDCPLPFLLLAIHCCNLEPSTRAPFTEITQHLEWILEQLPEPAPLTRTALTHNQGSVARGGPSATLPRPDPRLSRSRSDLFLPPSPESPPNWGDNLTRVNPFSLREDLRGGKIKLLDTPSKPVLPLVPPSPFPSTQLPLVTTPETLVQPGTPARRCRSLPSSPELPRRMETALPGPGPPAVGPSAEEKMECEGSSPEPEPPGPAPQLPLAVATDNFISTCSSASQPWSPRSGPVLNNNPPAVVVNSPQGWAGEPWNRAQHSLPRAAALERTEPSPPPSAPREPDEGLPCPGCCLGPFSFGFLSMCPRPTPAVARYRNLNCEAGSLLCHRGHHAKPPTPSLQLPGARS

[11] = biological target: T4, Protein kinase C zeta type (Homo sapiens) (UniProt Q05513); experiment: Selectivity interaction (ProQinase) EUB0000171b PRKCZ
T4 sequence (whole entry): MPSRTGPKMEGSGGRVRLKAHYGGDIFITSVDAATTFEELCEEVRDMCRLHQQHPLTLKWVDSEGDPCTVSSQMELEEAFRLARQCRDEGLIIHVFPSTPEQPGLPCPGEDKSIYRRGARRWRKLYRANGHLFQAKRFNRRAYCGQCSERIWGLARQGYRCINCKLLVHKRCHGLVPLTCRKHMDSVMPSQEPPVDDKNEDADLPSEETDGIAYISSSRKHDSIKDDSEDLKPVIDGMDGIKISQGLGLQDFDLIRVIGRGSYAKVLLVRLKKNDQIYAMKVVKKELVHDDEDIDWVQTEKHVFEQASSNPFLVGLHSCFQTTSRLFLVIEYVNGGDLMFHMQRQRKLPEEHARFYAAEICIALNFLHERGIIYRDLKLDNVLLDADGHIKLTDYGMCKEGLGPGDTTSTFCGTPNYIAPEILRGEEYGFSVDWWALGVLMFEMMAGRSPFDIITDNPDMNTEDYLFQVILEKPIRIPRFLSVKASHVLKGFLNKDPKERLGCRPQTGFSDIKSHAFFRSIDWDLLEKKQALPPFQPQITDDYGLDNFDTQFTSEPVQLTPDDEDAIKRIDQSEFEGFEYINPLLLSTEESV

[12] = biological target: Serine/threonine-protein kinase PAK 1 (Homo sapiens) (UniProt Q13153); experiment: Selectivity interaction (ProQinase) EUB0000171b PAK1
Serine/threonine-protein kinase PAK 1 (Homo sapiens), sequence (Q13153 whole entry): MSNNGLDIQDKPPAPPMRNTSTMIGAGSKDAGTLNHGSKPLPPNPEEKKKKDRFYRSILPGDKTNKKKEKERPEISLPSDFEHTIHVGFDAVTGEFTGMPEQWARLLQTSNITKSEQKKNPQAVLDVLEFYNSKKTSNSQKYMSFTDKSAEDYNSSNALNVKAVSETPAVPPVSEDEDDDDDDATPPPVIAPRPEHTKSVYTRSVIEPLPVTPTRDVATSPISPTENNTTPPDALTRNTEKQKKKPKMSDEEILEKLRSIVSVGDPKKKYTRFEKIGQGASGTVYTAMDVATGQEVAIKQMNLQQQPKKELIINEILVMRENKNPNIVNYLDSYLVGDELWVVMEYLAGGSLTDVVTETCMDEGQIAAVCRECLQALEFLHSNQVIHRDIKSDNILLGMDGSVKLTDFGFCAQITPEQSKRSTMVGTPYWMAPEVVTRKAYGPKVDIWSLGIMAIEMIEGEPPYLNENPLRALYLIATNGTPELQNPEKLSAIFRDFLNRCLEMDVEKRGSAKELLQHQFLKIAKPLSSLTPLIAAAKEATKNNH

Tyrosine-protein kinase Lyn, sequence (P07948 2-512 limits assumed): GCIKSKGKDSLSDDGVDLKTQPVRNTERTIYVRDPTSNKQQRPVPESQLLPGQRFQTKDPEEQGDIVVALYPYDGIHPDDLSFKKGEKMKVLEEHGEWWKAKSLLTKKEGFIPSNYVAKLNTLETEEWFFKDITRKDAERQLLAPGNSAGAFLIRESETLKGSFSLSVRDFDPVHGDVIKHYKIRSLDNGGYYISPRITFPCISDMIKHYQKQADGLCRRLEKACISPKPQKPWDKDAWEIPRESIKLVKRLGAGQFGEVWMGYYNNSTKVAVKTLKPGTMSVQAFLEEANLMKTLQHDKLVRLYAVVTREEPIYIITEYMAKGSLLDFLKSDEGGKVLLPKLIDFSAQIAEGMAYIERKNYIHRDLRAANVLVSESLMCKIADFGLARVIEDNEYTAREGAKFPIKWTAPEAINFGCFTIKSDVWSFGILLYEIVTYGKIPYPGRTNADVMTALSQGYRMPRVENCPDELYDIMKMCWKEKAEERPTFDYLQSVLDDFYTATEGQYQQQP

## CC(=O)Nc1cccc(-n2c(=O)n(C3CC3)c(=O)c3c(Nc4ccc(I)cc4F)n(C)c(=O)c(C)c32)c1
[1]
  % of control: 95%

## CN1Cc2nccc(-c3cn(C)nc3-c3ccc(F)cc3)c2C1=O
[2]
  IC50: 873 nM

## O=C(NOC[C@H](O)CO)c1ccc(F)c(F)c1Nc1ccc(I)cc1F
[3]
  % of control: 100%

## CC[C@@H]1[C@H](F)C(=O)N[C@@H]1COc1nccc2cc(C(N)=O)c(OC)cc12 [ZIMLOVISERTIB]
[4]
  % of inhibition: 11.1%

## C=CC(=O)Nc1cc(-n2c(=O)ccc3cnc4ccc(-c5ccc(NS(C)(=O)=O)cc5)cc4c32)ccc1C
[5]; at 1 µM
  % of control: 96%
[5]; at 10 µM
  % of control: 61%

## N#Cc1cccc(-c2c[nH]c3ncnc(N4CCOCC4)c23)c1
[6]
  % of control: 75%

## Cc1ccc(-c2ccc3c(ccc4sc5c(c43)NC[C@@H](C)NC5=O)n2)cn1
[7]
  % of inhibition: 31%

## Cc1cc(F)c(C(=O)Nc2cccc(-c3nncn3C(C)C)n2)cc1-n1cnc(C2CC2)c1
[8]
  % of control: 70%
[9]
  % of control: 98%

## CNC(=O)Nc1ccc(-c2nc(N3CC4CCC(C3)O4)c3cnn(C4CCC5(CC4)OCCO5)c3n2)cc1
[10]
  % of control: 80%

## C=CC(=O)Nc1cccc(C(=O)Nc2ccc(Nc3cc(-c4[nH]c(SC)nc4C)ccn3)cc2)c1
[11]; at 1 µM
  % of control: 87%
[11]; at 5 µM
  % of control: 86%
[12]; at 1 µM
  % of control: 90%
[12]; at 5 µM
  % of control: 84%
